Numbers after ± are expanded uncertainties.
Assay: xn = mol fraction of the nth substance listed
Conditions: 298.15 K, 101 kPa, Liquid, Vibrating tube method

CCCCOC(C)=O [butyl ethanoate] + CC(C)CO
mass density (x1 = 0.0589): 802.41 ± 0.24 kg/m3 | mass density (x1 = 0.1065): 806.12 ± 0.24 kg/m3 | mass density (x1 = 0.1907): 812.7 ± 0.24 kg/m3 | mass density (x1 = 0.272): 819.03 ± 0.24 kg/m3 | mass density (x1 = 0.3894): 828.2 ± 0.24 kg/m3 | mass density (x1 = 0.4427): 832.34 ± 0.24 kg/m3 | mass density (x1 = 0.5277): 838.96 ± 0.24 kg/m3 | mass density (x1 = 0.607): 845.14 ± 0.24 kg/m3 | mass density (x1 = 0.6829): 851.07 ± 0.24 kg/m3 | mass density (x1 = 0.7405): 855.58 ± 0.24 kg/m3 | mass density (x1 = 0.8166): 861.57 ± 0.24 kg/m3 | mass density (x1 = 0.87): 865.79 ± 0.24 kg/m3 | mass density (x1 = 0.9312): 870.67 ± 0.24 kg/m3 | mass density (x1 = 1): 876.2 ± 0.23 kg/m3

CC(C)CO [2-methyl-1-propanol] + CCCCOC(C)=O
mass density (x2 = 0): 797.82 ± 0.24 kg/m3

CC(C)CO [2-methyl-1-propanol] + CCC(C)Cl
mass density (x2 = 0): 797.82 ± 0.24 kg/m3

CCC(C)Cl (stereo not drawn) [2-chlorobutane] + CCCCOC(C)=O
mass density (x1 = 0.0787): 875.55 ± 0.24 kg/m3 | mass density (x1 = 0.1618): 874.83 ± 0.24 kg/m3 | mass density (x1 = 0.233): 874.2 ± 0.24 kg/m3 | mass density (x1 = 0.325): 873.36 ± 0.24 kg/m3 | mass density (x1 = 0.3861): 872.8 ± 0.24 kg/m3 | mass density (x1 = 0.4512): 872.2 ± 0.24 kg/m3 | mass density (x1 = 0.506): 871.7 ± 0.24 kg/m3 | mass density (x1 = 0.5902): 870.94 ± 0.24 kg/m3 | mass density (x1 = 0.6656): 870.27 ± 0.24 kg/m3 | mass density (x1 = 0.7352): 869.65 ± 0.24 kg/m3 | mass density (x1 = 0.7862): 869.19 ± 0.24 kg/m3 | mass density (x1 = 0.8516): 868.6 ± 0.24 kg/m3 | mass density (x1 = 0.8961): 868.19 ± 0.24 kg/m3 | mass density (x1 = 0.9458): 867.73 ± 0.24 kg/m3 | mass density (x1 = 1): 867.21 ± 0.24 kg/m3

CCC(C)Cl (stereo not drawn) [2-chlorobutane] + CC(C)CO
mass density (x1 = 0.0579): 801.82 ± 0.24 kg/m3 | mass density (x1 = 0.1152): 805.77 ± 0.24 kg/m3 | mass density (x1 = 0.2274): 813.51 ± 0.24 kg/m3 | mass density (x1 = 0.3166): 819.67 ± 0.24 kg/m3 | mass density (x1 = 0.4235): 827.01 ± 0.24 kg/m3 | mass density (x1 = 0.4896): 831.53 ± 0.24 kg/m3 | mass density (x1 = 0.5564): 836.12 ± 0.24 kg/m3 | mass density (x1 = 0.6097): 839.79 ± 0.24 kg/m3 | mass density (x1 = 0.6872): 845.08 ± 0.24 kg/m3 | mass density (x1 = 0.7523): 849.59 ± 0.24 kg/m3 | mass density (x1 = 0.809): 853.54 ± 0.24 kg/m3 | mass density (x1 = 0.8487): 856.33 ± 0.24 kg/m3 | mass density (x1 = 0.8975): 859.77 ± 0.24 kg/m3 | mass density (x1 = 0.9293): 862.05 ± 0.24 kg/m3 | mass density (x1 = 0.9638): 864.55 ± 0.24 kg/m3 | mass density (x1 = 1): 867.21 ± 0.24 kg/m3

CCCCOC(C)=O [butyl ethanoate] + CCC(C)Cl
mass density (x2 = 0): 876.2 ± 0.23 kg/m3

— the NIST ThermoML archive (doi:10.1016/j.jct.2011.05.017)
